Experimental data: patent US11478528B2, “Antimicrobial peptides against Listeria monocytogenes” (MATERIAS S.r.l., priority 2017, dated 2022)
Entries after “also recorded” stand apart in the source; their conditions may differ. Ends that are not written are not given here.

Columns and labels:
[1] = Thermostability assay by Circular Dichroism; type: physicochemical; conditions: 15 to 90° C., 2 hours at 90° C., pH 6, 10 mM SDS
Experimental: The prepared samples were incubated for two hours at 15° C. or 90° C. A CD analysis was performed on samples stored at 15° C. and before and after incubation for two hours at 90° C.

[2] = tested on: L. monocytogenes biofilms; assay: Antibiofilm activity assay with SEM on steel discs; type: cell-based, Listeria monocytogenes; conditions: for cells on steel discs by SEM, 5000× image: 50 μM
Experimental: The activity of the Bac-amp1 and IDR-1018 peptides on L. monocytogenes biofilms was further investigated by scanning electron microscopy (SEM).
Specifically, in this example the three-dimensional biofilm architecture, developed on stainless steel materials, was studied.
The Aisi 304 stainless steel discs with a diameter of 14.5 mm (SS) were treated with 600 μl of standardized inoculum in the presence or absence of each of the peptides at the concentration of 25 μM or 50 μM, or with control medium, according to the same method of Example 4a and repeatedly washed in sterile PBS to remove planktonic cells and fixated on a new plate with 1 ml of Karnovsky fixative containing 5% glutaraldehyde, 4% paraformaldehyde in buffer 0.064 M (Electronic Microscopy Science, Hatfield, Pa., USA) for 1 hour at 4° C. Thereafter, the samples were washed in 0.1 M cacodylate sodium buffer at pH 7.4 (Electronic Microscopy Science, Hatfield, Pa., USA) and the fixated cells were dehydrated in a series of aqueous acetone solutions at different concentrations, in particular 25%, 50%, 75% and 100%. The samples were glued onto polished aluminium sample holders (Electronic Microscopy Science, Hatfield, Pa., USA) and uniformly vacuum coated with a 20-nm thick gold layer with the K950 high-vacuum Turbo Evaporator and a K 350 coupling (Emitech Ltd, Ashford, UK). The coated samples were examined at the JEOL 6700 FEG Field Emission Electron Microscope (SEM Jeol, City and State) with magnification from 1000× to 5000×. For each sample, a number of images (5-10), acquired as electronic images were randomly analyzed.

[3] = pH stability assay by Circular Dichroism; conditions: for pH range with increase in the percentage of unordered random coil structure: 10 mM SDS, 24 hours at 37° C.
Experimental: The stability of the Bac-amp1 and IDR-1018 peptides was assessed by studying their secondary structure with Circular Dichroism (CD) spectroscopy in the presence of Sodium Dodecyl Sulfate (SDS) micelles at a concentration of 10 mM to mimic the condition of the cell membrane, in different temperature and pH conditions.
CD assays were performed with a Jasco J-810 Spectropolarimeter equipped with a thermostatted cuvette compartment. The samples were loaded into a 0.1 cm-long quartz cuvette (Hellma Analytics) and the spectrum was analyzed in the 190 nm to 250 nm range at temperatures of 15° C. or 90° C. for each sample.
The CD spectra were acquired at a scanning speed of 20 nm/min, and the recorded results represent an average of 5 scans. The spectra at 90° C. were collected at time zero and after 2 hours to evaluate the thermostability of peptides at high temperatures.
The average ellipticity of the residues ([θ], degrees cm^2 dmol^−1) was calculated using the following equation: [θ]=100θ/cn1 where θ represents ellipticity (m degrees), c is the concentration (mM) of the peptide, n is the number of residues. The secondary structure was calculated through the DICHROWEB site (Whitmore L and Wallace B A, 2004, Nucleic Acids Research 32: 668-673, Whitmore L and Wallace B A, 2008, Biopolymers 89:392-400, Lobley et al, 2002, Bioinformatics 18:211-212), using three different algorithms (SELCON3, CONTIN-LLe CDSSTR) (Sreerema N and Woody R W, 1993, Analytical Biochemistry 287:252-260; Sreerema N et al, 1999, Protein Science 8:370-380, Provencher S W and Glockner J, 1981, Biochemistry 20:33-37, Van Stokkum I H M et al, 1990, Analytical Biochemistry 191:110-118, Compton L A and Johnson W C, 1986, Analytical Biochemistry 155:155-167, Manavalan P and Johnson W C, 1987, Analytical Biochemistry 167:76-85, Sreerama N et al, 2000, Protein Science 8:370-380) and selecting as a comparison data set the SMP180 protein, which includes a high number of soluble and membrane proteins (Abdul-Gader A et al, 2011, Bioinformatics 27:1630-1636). […]

S. thyphimurium (ATCC) = type: cell-based, Salmonella typhimurium; conditions: 6 h
Experimental: (§1) The evaluation of the minimum bactericidal concentration (MBC) was carried out as described in Bilikova et al, (2015, Peptides 68:190-196) and the evaluation of the effective concentration to reduce 50% of the bacterial population (EC50) of the two peptides was carried out with the micro-dilutions of the broth as described in Wang H X and Ng T B (2003, Peptides 24:969-972). Standard deviations for triple incubations of each plate and EC50 evaluation were determined using GraphPad Prism version 6.00 (Graph-Pad Software, La Jolla Calif. USA) Salmonella typhimurium A control stock suspension was prepared in which 10^3 CFU of S. typhimurium (ATCC13311 strain) were inoculated in 10 ml of BPW (Oxoid, Basingstoke, UK). […] Each dilution series included control plates inoculated with DMSO without the peptide and control plates with bacteria alone. In all the investigated experimental conditions, the plate counting method was used to estimate the bactericidal activity of the peptides. Specifically, the number of colonies grown on plates with agar seeded with bacterial suspensions in the absence or in the presence of individual dilutions of peptides was counted and compared. The standard deviations of the triple incubations of each plate were determined using statistical software. […]

[4] = tested on: L. monocytogenes (LM2 food-isolated strain); assay: Antimicrobial activity of Bac-amp1 coupled gold nanoparticles (CFU count); type: cell-based, Listeria monocytogenes; conditions: 0.10 μM to 0.58 μM, 15×10^4 CFU/mL, 6 h at 37° C.
Experimental: The bactericidal efficacy of the functionalized gold nanoparticles prepared in Example 6 was determined against L. monocytogenes (LM2 food-isolated strain) and S. Typhimurium (ATCC 13311 strain) bacteria, which allowed the evaluation of the minimal bactericidal concentration (MBC50), corresponding to the lowest peptide concentration able to cause at least 50% reduction in the number of viable bacteria on agar plates.
L. monocytogenes and S. Typhimurium were grown at 37° C. in Half Fraser (Biorad-Italia) and BPW (Biomerieux-Italia) broths, respectively. […]
Data were determined by numbering the surviving colony forming units (CFU) in the Au—NPs-Bac-amp1 plates and in the Au—NPs plates and were expressed as percent decrease in the number of CFU with respect to the initial number of CFU. […]
Thus, in another set of experiments, the activity of Bac-amp1 coupled nanoparticles was determined incubating 15×10^4 CFU/mL (colony forming units/mL) of Listeria with increasing concentrations, ranging from 0.10 μM to 0.58 μM, of coupled nanoparticles (Au—NPs-Bac-amp1 plates), non-functionalized gold nanoparticles (Au—NPs plates) or free peptides (Bac-amp1 plates) for 6 h at 37° C. The number of viable colonies for the different plates at each concentration tested were counted.

[5] = tested on: Listeria monocytogenes (ATCC strain and field strains SS1-SS5)
Experimental: The bactericidal activity of the Bac-amp1 and IDR-1018 peptides was evaluated against both Gram+ (Listeria monocytogenes and Staphylococcus aureus) and Gram− (Salmonella typhimurium) pathogenic bacteria.
Standard deviations for triple incubations of each plate and EC50 evaluation were determined using GraphPad Prism version 6.00 (Graph-Pad Software, La Jolla Calif. USA)
As regards Listeria monocytogenes, five field strains were added to the trial (wild strains) SS1 (serotype 4b), SS2 (serotype 4b), SS3 (serotype 4b), SS4 (serotype 4b), SS5 (serotype ½c) shown in Table 2. These strains were isolated from 200 samples of food waste, in particular fish products and milk derivatives, obtained from workbenches of food companies. All samples were collected in a context of official controls. Isolation of Listeria monocytogenes strains was performed according to the ISO-11290-1 standard. […]
In all the investigated experimental conditions, the plate counting method was used to estimate the bactericidal activity of the peptides. Specifically, the number of colonies grown on plates with agar seeded with bacterial suspensions in the absence or in the presence of individual dilutions of peptides was counted and compared. The standard deviations of the triple incubations of each plate were determined using statistical software. […]

[6] = tested on: L. monocytogenes biofilms
Experimental: The antibiofilm activity of the Bac-amp1 and IDR-1018 peptides was tested by analyzing their ability to inhibit the formation of bacterial biofilms of L. monocytogenes.
The ability of peptides to prevent the formation of L. monocytogenes biofilms was determined according to the microplate assay described in G. Di Bonaventura et al. (2008, J Appl Microbiol 104(6):1552-61) with some modifications.
10 ml of bacterial suspension were then centrifuged the cell pellet was washed in PBS and diluted in BHI broth, reaching the concentration of about 10^3 CFU/ml of standardized inoculum.
The biofilm formation assays were conducted using as target surfaces the Aisi 304 stainless steel discs having a diameter of 14.5 mm (SS) used in the food industry as food contact surfaces. The discs were placed on 24-well Falcon® tissue culture plates, (Thermo Fisher Scientific Inc., Waltham, Mass., USA), with flat bottom and lid. Before use, the stainless steel discs were immersed in 10% acetone and left under weak stirring at room temperature for 30 min. After washing in ultrapure sterile water, the discs were incubated in ethanol 99.8% for 10 minutes under weak stirring and then washed in ultrapure sterile water, dried, packaged and sterilized at 121° C., 1 atm for 15 minutes.
In each set of experiments, 600 μl of standardized inoculum in the presence or absence of each of the peptides at the concentration of 12.5 μM, 25 μM or 50 μM were added to 24-well culture plates containing the previously treated stainless steel materials. BHI Broth was used as a negative control. The plates were incubated at 37° C. for 72 hours under static conditions. The cell count of L. monocytogenes, according to the ISO 11290-2:98 method. After incubation, the SS discs were washed three times with PBS and placed in a new plate to dry at 60° C. for 1 hour. […] Quantitative analysis of biofilm production was performed by adding 1 ml of 33% acetic acid, which removes the dye from the adhered cells. 200 μl of the obtained solution were transferred to a microplate and the crystal violet level (OD) was measured at 492 nm. […]

S. aureus (NCTC) = type: cell-based, Staphylococcus aureus; conditions: 6 h
Experimental: as §1, with “Staphylococcus aureus” for “Salmonella typhimurium”, “(6571” for “(ATCC13311”, “BPW.” for “BPW (Oxoid, Basingstoke, UK).”, “Also in this case, the” for “Each”, “only. 50 μl of each bacterial suspension were poured onto petri dishes with blood agar or rabbit plasma fibrinogen agar and incubated for 20 hours at 37° C.” for “alone.”, “compared.” for “compared. The standard deviations of the triple incubations of each plate were determined using statistical software.”

| Substance | thermostability (CD spectra) [1] | cells on steel discs by SEM, 5000× image [2] | pH range with increase in the percentage of unordered random coil structure [3] | conformational stability at different pH ([3]; pH 1.0 to 11.0) | EC50 (S. thyphimurium (ATCC)) [nM] | bacterial cell death versus concentration [4] | biofilm formation by SEM ([2]; 25 μM) | MIC, bactericidal activity against Listeria monocytogenes ([5]; ATCC strain and field strains SS1-SS5) | EC50 ([5]; ATCC strain and field strains SS1-SS5, 6 h) [nM] | MIC, antibiofilm activity ([6]; biofilms) [µM] | MBIC100 (minimum biofilm inhibiting concentration) ([6]; biofilms, 72 h) [µM] | reduction of microbial biomass ([6]; concentrations of 25-50 μM, 72 h, 37° C., steel discs) [%] | EC50 (S. aureus (NCTC)) [nM] |
| --- | --- | --- | --- | --- | --- | --- | --- | --- | --- | --- | --- | --- | --- |
| VRLIVAVRIWRR-NH2 [IDR-1018, VRLIVAVRIWRR] | high thermostability | a greater number of cells | 8.0-11.0 | higher conformational stability at pH 1.0; also recorded: greater conformational stability at pH 1.0 | – | – | – | – | – | – | – | – | – |
| VRLIVKVRIWRR-NH2 [Bac-amp1, VRLIVKVRIWRR-NH2] | – | near absence of cells | 1.0-4.0 | – | 2830 | dose-dependent bacterial cell death | significantly reduces the formation of biofilm | below 10 μM | 550 | 25 to 50 | 25 to 50 | 100 | 1660 |
